Assay results reported in PubChem BioAssay AID1613 (NINDS Approved Drug Screening Program, 2009).
pEC50: −log10 of the molar value.

System: GFP-SOD1 mutant aggregation, cell imaging
Assay: inhibitors of mutant SOD1 aggregation, cell-based (AID 1613)

SMILES | pEC50
C[C@H]1O[C@@H](O[C@H]2[C@@H](O)C[C@H](O[C@H]3[C@@H](O)C[C@H](O[C@H]4CC[C@]5(C)C6C[C@@H](O)[C@]7(C)[C@@H](C8=CC(=O)OC8)CC[C@]7(O)C6CC[C@@H]5C4)O[C@@H]3C)O[C@@H]2C)C[C@H](O)[C@@H]1O (some centres undefined) | 4.70
C[C@]12CCC3C(CC[C@]4(O)C[C@@H](O)CC[C@]34C=O)[C@@]1(O)CCC2C1=CC(=O)OC1 (some centres undefined) | 5.30
CO[C@H]1[C@H](O)[C@H](O[C@H]2CC[C@]3(C)C4CC[C@]5(C)C(C6=CC(=O)OC6)CC[C@]5(O)C4CC[C@@H]3C2)O[C@@H](C)[C@@H]1O (some centres undefined) | 5.30
CC(=O)O[C@H]1C(=O)[C@@]2(C)C([C@H](OC(=O)c3ccccc3)[C@]3(O)C[C@H](OC(=O)[C@H](O)[C@@H](NC(=O)c4ccccc4)c4ccccc4)C(C)=C1C3(C)C)[C@]1(OC(C)=O)CO[C@@H]1C[C@@H]2O (some centres undefined) | 5.30
O=C1c2c(O)ccc(O)c2C(=O)c2c(NCCNCCO)ccc(NCCNCCO)c21 | 5.30
COc1ccc(C[C@H]2NC[C@H](O)[C@H]2OC(C)=O)cc1 | 5.70
CO[C@H]1[C@H](O)[C@@H](O[C@H]2CC[C@]3(C=O)C4CC[C@]5(C)[C@@H](C6=CC(=O)OC6)CC[C@]5(O)C4CC[C@@H]3C2)O[C@@H](C)[C@@H]1O (some centres undefined) | 5.30
CC[C@H]1CN2CCc3cc(OC)c(OC)cc3C2C[C@@H]1CC1NCCc2cc(OC)c(OC)cc21 (some centres undefined) | 5.30
C[n+]1c2cc(N)ccc2cc2ccc(N)cc21 | 5.00
CC[C@@]1(O)C(=O)OCc2c1cc1n(c2=O)Cc2cc3ccccc3nc2-1 | 4.82
C[C@H]1O[C@@H](O[C@H]2[C@@H](O)C[C@H](O[C@H]3[C@@H](O)C[C@H](O[C@H]4CC[C@]5(C)C6CC[C@]7(C)[C@@H](C8=CC(=O)OC8)CC[C@]7(O)C6CC[C@@H]5C4)O[C@@H]3C)O[C@@H]2C)C[C@H](O)[C@@H]1O (some centres undefined) | 4.70
CC(=O)O[C@H]1C[C@H](O[C@H]2[C@@H](O)C[C@H](O[C@H]3[C@@H](O)C[C@H](O[C@H]4CC[C@@]5(C)C(CCC6C5C[C@@H](O)[C@]5(C)[C@@H](C7=CC(=O)OC7)CC[C@]65O)C4)O[C@@H]3C)O[C@@H]2C)O[C@H](C)[C@H]1O[C@@H]1O[C@H](CO)[C@@H](O)[C@H](O)[C@H]1O (some centres undefined) | 5.30
C[C@@H]1C[C@@H]([C@H](O)CC2CC(=O)NC(=O)C2)C(=O)[C@@H](C)C1 | 5.70
CCN(CC)CCNc1ccc(CO)c2sc3ccccc3c(=O)c12 | 4.70
